Reference: article PMC10343472, “Cyclopentenylcytosine (CPE-C): In Vitro and In Vivo Evaluation as an Antiviral against Adenoviral Ocular Infections” (Molecules, 2023)

Tests used:
HAdV37 = assay: plaque reduction assay in A549 cells, HAdV37; format: cell-based; conditions: Human adenovirus sp.
Protocol: The in vitro antiviral testing was done using a standard plaque reduction assay with A549 human lung carcinoma cells as previously described. The EC50s were determined using a Fitted Line Plot Regression analysis with Minitab Version 21 software. The EC50 is the effective concentration that inhibits plaque formation by 50%. The HAdV types tested represent the most common adenovirus serotypes that cause ocular infections (HAdV8, HAdV19/64, HAdV37 (EKC); HAdV3, HAdV4, HAdV7a (follicular conjunctivitis)) and serotypes that cause conjunctivitis and can replicate in the rabbit ocular model (HAdV1, HAdV2, HAdV5).
For the in vitro antiviral testing, clinical adenovirus isolates of types HAdV1, HAdV2, HAdV3, HAdV4, HAdV5, HAdV7a, HAdV8, and HAdV19/64 were anonymously collected from patients presenting with typical adenoviral conjunctivitis at the Charles T. Campbell Ophthalmic Microbiology Laboratory at the UPMC Eye Center, University of Pittsburgh, Pittsburgh, PA, USA. The isolates were retrieved from a frozen −80 °C retrospective clinical collection that was de-identified and stored for diagnostic test validations. The types of isolates were determined using serum neutralization. Recently, HAdV19 has been reclassified as HAdV64 [41]; however, for the purpose of this study, it was designated as HAdV19/64. No clinical isolates of HAdV37 were identified, therefore the ATCC (American Type Culture Collection, Manassas, VA, USA) reference strain of HAdV37 was used. The clinical isolates along with the ATCC HAdV37 reference strain were grown in A549 cell (CCL-185, ATCC) monolayers and stocks were prepared, aliquoted, and frozen at –80 °C. The titers of the stock viruses were determined as described in Section 4.7. The same clinical isolate of HAdV5 used for the in vitro antiviral testing was also used for the in vivo antiviral evaluation in the Ad5/NZW rabbit ocular replication model.
A549 human lung carcinoma cells were grown and maintained in Eagle’s MEM supplemented with 10% fetal bovine serum (Sigma Cell Culture Reagents, St. Louis, MO, USA). The A549 cell line was used to prepare the adenovirus stocks and for the determination of viral titers in the Ad5/NZW rabbit ocular replication model and in the in vitro plaque reduction assays.
Plaque reduction assays were performed 2–4 times using 24-well multiplates containing A549 monolayers. One plate per virus isolate per drug was used. The 24-well multiplates were inoculated with approximately 100 plaque-forming units (PFU) of HAdV per well. After a three-hour adsorption period, the inocula were removed from all wells. […] The plates were dried, and the number of plaques per well was counted using a dissecting microscope. […] The mean and standard deviation EC50 concentrations of 2–4 trials were then determined for each HAdV isolate. […]

NZW rabbit eyes = assay: ocular toxicity in Draize rabbit model; format: in vivo, New Zealand white (NZW) rabbits; design: key to Maximum Mean Total Score: Draize/MMTS ocular toxicity score; on Draize irritation class: key: N = Non-Irritating; PN = Practically Non-Irritating
Protocol: CPE-C was evaluated for ocular toxicity using the standard Draize ocular scoring method which has been in use to determine the toxicity of cosmetics and chemicals since 1944 [39]. CPE-C ointments (3%, 2%, 1%, 0.5%) were administered topically 4 times daily for 4 days in uninfected, non-scarified NZW rabbit eyes (n = 2). Additionally, the 3% CPE-C concentration was also evaluated in rabbit eyes after corneal scarification. Overall, CPE-C, in concentrations up to 3% in an Aquaphor vehicle, appeared to be non-toxic to NZW rabbit eyes. […] There appeared to be no inhibition of corneal epithelial wound healing by the CPE-C in eyes that had undergone corneal epithelial scarification. Since the 3% CPE-C was the highest non-toxic concentration tested, this concentration was chosen for the in vivo antiviral efficacy testing in the Ad5/NZW rabbit ocular replication model.
CPE-C ointment (3%, 2%, 1%, 0.5%) was administered topically 4 times daily for 4 days in uninfected, non-scarified NZW rabbit eyes (n = 2). The CPE-C ointments were administered in approximately ½ inch strips per dose via a syringe with a 19-gauge cannula attached. The eyes were closed and gently rubbed to produce even distribution of antiviral over the entire ocular surface. The 3% CPE-C concentration was also evaluated in rabbit eyes after corneal scarification (general anesthesia with 40 mg/kg of ketamine and 4 mg/kg of xylazine administered intramuscularly and topical ocular anesthesia with proparacaine followed by 12 cross-hatched strokes with a #25 needle). All eyes were evaluated in a masked fashion for ocular toxicity using the Draize and MMTS scoring system on days 2, 3, and 4.

[1] = design: method as in PMID 7554044; conditions: treatment of solid tumors; intravenous; cited from earlier work
[2] = design: method as in PMID 11431446; conditions: topical ocular; cited from earlier work
[3] = A549, HAdV37, converted from μg/mL
[4] = HAdV37 ATCC reference strain, A549 cells, mean ± SD of 2–4 trials
[5] = 1% ointment 4 times daily, non-scarified eyes, Day 2
[6] = 1% ointment 4 times daily, non-scarified eyes, Day 3
[7] = 1% ointment 4 times daily, non-scarified eyes, Day 4
[8] = 2% ointment 4 times daily, non-scarified eyes, Day 2
[9] = 2% ointment 4 times daily, non-scarified eyes, Day 3
[10] = 2% ointment 4 times daily, non-scarified eyes, Day 4
[11] = 3% ointment 4 times daily, non-scarified eyes, Day 2

SMILES: Nc1ccn([C@@H]2C=C(CO)[C@@H](O)[C@H]2O)c(=O)n1 [CPE-C, Cyclopentenylcytosine]
- EC50 (HAdV37; [3]): 0.202 ± 0.037 µM
- EC50 (HAdV37; [4]): 0.048 ± 0.008 µg/mL
- Maximum Mean Total Score (NZW rabbit eyes; 0.5% ointment 4 times daily, non-scarified eyes, Day 2): 1.0
- Maximum Mean Total Score (NZW rabbit eyes; 0.5% ointment 4 times daily, non-scarified eyes, Day 3): 1.0
- Maximum Mean Total Score (NZW rabbit eyes; 0.5% ointment 4 times daily, non-scarified eyes, Day 4): 1.0
- Draize irritation class (NZW rabbit eyes; [5]): N
- Maximum Mean Total Score (NZW rabbit eyes; [5]): 0.0
- Draize irritation class (NZW rabbit eyes; [6]): N
- Maximum Mean Total Score (NZW rabbit eyes; [6]): 0.0
- Draize irritation class (NZW rabbit eyes; [7]): N
- Maximum Mean Total Score (NZW rabbit eyes; [7]): 0.0
- Draize irritation class (NZW rabbit eyes; [8]): N
- Maximum Mean Total Score (NZW rabbit eyes; [8]): 0.0
- Draize irritation class (NZW rabbit eyes; [9]): N
- Maximum Mean Total Score (NZW rabbit eyes; [9]): 0.0
- Draize irritation class (NZW rabbit eyes; [10]): N
- Maximum Mean Total Score (NZW rabbit eyes; [10]): 0.0
- Maximum Mean Total Score (NZW rabbit eyes; 3% ointment 4 times daily, eyes with scarification, Day 2): 1.0
- Maximum Mean Total Score (NZW rabbit eyes; 3% ointment 4 times daily, eyes with scarification, Day 3): 1.0
- Maximum Mean Total Score (NZW rabbit eyes; 3% ointment 4 times daily, eyes with scarification, Day 4): 1.0
- Draize irritation class (NZW rabbit eyes; [11]): N
- Maximum Mean Total Score (NZW rabbit eyes; [11]): 0.0
- Maximum Mean Total Score (NZW rabbit eyes; 3% ointment 4 times daily, non-scarified eyes, Day 3): 2.0
- Maximum Mean Total Score (NZW rabbit eyes; 3% ointment 4 times daily, non-scarified eyes, Day 4): 2.0
- ocular irritation by Draize scoring (NZW rabbit eyes; 3% ointment, scarified eyes, 4 times daily for 4 days): practically non-irritating
- inhibition of corneal epithelial wound healing (NZW rabbit eyes; eyes that had undergone corneal epithelial scarification): no inhibition
- ocular irritation by Draize scoring (NZW rabbit eyes; rabbit, in vivo): non-irritating or practically non-irritating
- patient deaths during clinical trials [1]: Two patient deaths from refractory hypotension

SMILES: Nc1ccn(C[C@@H](CO)OCP(=O)(O)O)c(=O)n1 [Cidofovir, cidofovir, reference compound]
- EC50 (HAdV37; [3]): 17.2 ± 2.43 µM
- EC50 (HAdV37; [4]): 4.79 ± 0.678 µg/mL
- toxicity leading to discontinuation of development of topical cidofovir in the USA [2]: epiphora due to secondary lacrimal canalicular blockade
